The values that follow come from EPA's ToxRefDB 2.

Series [1] deals with rat. Particulars: Prenatal developmental toxicity study, sprague dawley, Oral, Gavage/Intubation, dose end: 15 GD, group: maternal.
For series [2], the system named is rat. Particulars: Subchronic oral toxicity in rodents, sprague dawley, Gavage/Intubation, dose end: 13 week, group: systemic.
The test system of series [3] is rabbit. The following applies: Prenatal developmental toxicity study, new zealand white, Oral, Gavage/Intubation, dose end: 18 GD.
Series [4] relates to rat. Particulars: Combined chronic toxicity/carcinogenicity; sprague dawley; Oral; Feed; dose end: 104 week; group: systemic; systemic / clinical chemistry / alkaline phosphatase (alp/alk) / alkaline phosphatase (alp/alk) + systemic / clinical chemistry / aspartate ….
The subject of series [5] is rat. Particulars: Subchronic oral toxicity in rodents, Charles River CD, Feed, dose end: 90 day, group: systemic.
The subject of series [6] is rat. The following applies: Combined chronic toxicity/carcinogenicity; other; Oral; Feed; dose end: 2 year; group: systemic; systemic / clinical chemistry / peroxisomal beta-oxidation analysis / peroxisomal beta-oxidation analysis + systemic / organ weight / liver….
Series [7] deals with rat. The following applies: Multigenerational reproductive toxicity study, sprague dawley, Oral, Gavage/Intubation, dose end: 2 generation.
The subject of series [8] is rat. The following applies: Acute oral toxicity, wistar, [Not Specified], dose end: 7 day, group: systemic, systemic / clinical chemistry / calcium / calcium + systemic / urinalysis / calcium / calcium.
The test system of series [9] is rat. The following applies: Developmental neurotoxicity range-finding study, sprague dawley, Oral, Feed, dose end: 21 PND, group: cannot be grouped.
In series [10] the test system is rat. The following applies: Chronic toxicity, sprague dawley, Oral, Feed, dose end: 98 week, group: cholinesterase.
Series [11] relates to rat. The following applies: Subchronic oral toxicity in rodents, sprague dawley, Feed, dose end: 90 day.
Series [12] concerns dog. The following applies: Chronic toxicity, beagle, Oral, Feed, dose end: 52 week.
Series [13] has as its system rat. The following applies: Prenatal developmental toxicity study, sprague dawley, Oral, Gavage/Intubation, dose end: 15 GD.
For series [14], the system named is mouse. The following applies: Carcinogenicity; cd1; Oral; Feed; dose end: 113 week; group: systemic; systemic / pathology microscopic / intestine small / adenocarcinoma + systemic / pathology microscopic / intestine small / adenoma + ….
The test system of series [15] is mouse. The following applies: Carcinogenicity, cd1, Oral, Feed, dose end: 22 month, group: systemic.
In series [16] the test system is rabbit. The following applies: Prenatal developmental toxicity study, new zealand white, Oral, Gavage/Intubation, dose end: 19 GD.
In series [17] the test system is dog. Particulars: Chronic toxicity; beagle; Oral; Capsule; dose end: 12 month; group: systemic; systemic / in life observation / clinical signs / emesis + systemic / in life observation / clinical signs / mucoid stools + systemic / in ….
Setting [18] is: systemic / in life observation / body weight / body weight + systemic / in life observation / clinical signs / alopecia + systemic / in life….
[19] abbreviates: systemic / in life observation / body weight / body weight + systemic / in life observation / food consumption / food consumption.
[20] abbreviates: systemic / organ weight / liver / absolute + systemic / organ weight / liver / relative to body weight + systemic / in life observation / ….
The mark [21] stands for this setting: group: developmental, developmental / developmental malformation / bone / full supernumerary.
Where [22] appears, read: group: maternal, systemic / in life observation / body weight / body weight gain.
The mark [23] stands for this setting: systemic / organ weight / liver / absolute + systemic / organ weight / liver / relative to body weight + systemic / pathology microscopic / ….
The mark [24] stands for this setting: group: offspring, developmental / offspring survival late / lactation index / lactation index + developmental / offspring survival late / [other] / [other] + ….
[25] abbreviates: group: parental, systemic / in life observation / body weight / body weight + systemic / in life observation / body weight / body weight gain + systemic / in….
The mark [26] stands for this setting: group: parental, systemic / organ weight / kidney / relative to body weight + systemic / organ weight / liver / absolute + systemic / organ weight / liver / ….
Setting [27] is: cholinesterase / cholinesterase / cholinesterase / plasma cholinesterase (che).
The mark [28] stands for this setting: cholinesterase / cholinesterase / cholinesterase / plasma cholinesterase (che) + cholinesterase / cholinesterase / cholinesterase / brain ….
[29] abbreviates: group: cholinesterase, cholinesterase / cholinesterase / cholinesterase / plasma cholinesterase (che).
The mark [30] stands for this setting: group: cholinesterase, cholinesterase / cholinesterase / cholinesterase / plasma cholinesterase (che) + cholinesterase / cholinesterase / cholinesterase / brain ….
The mark [31] stands for this setting: group: systemic, systemic / in life observation / body weight / body weight gain + systemic / in life observation / clinical signs / aggressive behavior + ….
The mark [32] stands for this setting: group: cholinesterase, cholinesterase / cholinesterase / cholinesterase / cholinesterase (che) + cholinesterase / cholinesterase / cholinesterase / plasma ….
The mark [33] stands for this setting: group: systemic, systemic / organ weight / lung / relative to brain weight.
Where [34] appears, read: group: developmental, developmental / developmental malformation / bone / short + systemic / in life observation / body weight / fetal weight.
[35] abbreviates: group: maternal, systemic / in life observation / body weight / body weight gain + reproductive / reproductive performance / postimplantation loss / ….
Setting [36] is: systemic / pathology microscopic / intestine small / neoplasm nos + systemic / pathology microscopic / stomach / neoplasm nos + systemic / ….
[37] abbreviates: group: developmental, developmental / developmental malformation / bone / delayed ossification + developmental / developmental malformation / bone / full ….
The mark [38] stands for this setting: group: maternal, systemic / in life observation / body weight / body weight gain + systemic / in life observation / clinical signs / anorexia + systemic / in….

For the molecule `CCCCCCCCOC(C)=O` [Octyl acetate], the LOAEL in the series with rat [1] (setting [18]) and in the series with rat [2] (setting [20]) was over 1000 mg/kg/day in each case. For the same molecule, the NEL in the series on rat [1] (setting [18]) and in the series with rat [2] (systemic / in life observation / body weight / body weight + systemic / in life observation / food consumption / food consumption + systemic…) was 100 mg/kg/day each time. The no observed adverse effect level (NOAEL) in the series on rat [1] (setting [18]) and with rat [2] (setting [20]) was at least 1000 mg/kg/day in each case. The LEL in the series with rat [1] (setting [19]) and with rat [2] (systemic / organ weight / liver / relative to body weight) was 500 mg/kg/day each time.

For `O=C([O-])C(F)(F)C(F)(F)C(F)(F)C(F)(F)C(F)(F)C(F)(F)C(F)(F)F.[NH4+]` [PFOA, ammonium salt], the LEL with rabbit [3] (setting [21]) stood at 50 mg/kg/day; in the series with rabbit [3] (setting [22]), 50 mg/kg/day; in the series with rat [4] it was 1.3 mg/kg/day; in the series with rat [5] (systemic / organ weight / kidney / absolute) it was 1.5 mg/kg/day; in the series with rat [6], 15 mg/kg/day; in the series with rat [7] (setting [24]), 30 mg/kg/day. For the same molecule, the LEL with rat [7] (setting [26]) came to 1 mg/kg/day. The LOAEL in the series with rabbit [3] (setting [21]) is over 50 mg/kg/day; in the series with rabbit [3] (setting [22]), 50 mg/kg/day; with rat [4] it was over 14.2 mg/kg/day; in the series on rat [5] (setting [23]) it was over 50 mg/kg/day; in the series with rat [6], over 15 mg/kg/day; in the series with rat [7] (setting [24]), over 30 mg/kg/day. In the series on rat [7] (setting [25]), the LOAEL was over 30 mg/kg/day. The NEL was 5 mg/kg/day with rabbit [3] (setting [21]); 5 mg/kg/day in the series on rabbit [3] (setting [22]); under 1.3 mg/kg/day with rat [4]; 0.5 mg/kg/day in the series on rat [5] (systemic / clinical chemistry / alkaline phosphatase (alp/alk) / alkaline phosphatase (alp/alk) + systemic / clinical chemistry / urea …); under 15 mg/kg/day with rat [6]; 10 mg/kg/day in the series on rat [7] (setting [24]). In the series with rat [7] (setting [26]), the NEL was under 1 mg/kg/day. The NOAEL was at least 50 mg/kg/day with rabbit [3] (setting [21]); 5 mg/kg/day with rabbit [3] (setting [22]); at least 14.2 mg/kg/day in the series on rat [4]; at least 50 mg/kg/day in the series on rat [5] (setting [23]); at least 15 mg/kg/day in the series on rat [6]; at least 30 mg/kg/day with rat [7] (setting [24]). Besides, in the series with rat [7] (setting [25]), the NOAEL was at least 30 mg/kg/day.

Regarding `COc1ccc2c(c1)c(CC(=O)O)c(C)n2C(=O)c1ccc(Cl)cc1` [Indomethacin], in the series with rat [8], the LEL came to 20 mg/kg/day, the LOAEL was over 20 mg/kg/day, the NEL was under 20 mg/kg/day and the no observed adverse effect level (NOAEL) was at least 20 mg/kg/day.

For `CCOP(=S)(OCC)Oc1cc(C)nc(C(C)C)n1` [Diazinon], the LOAEL in the series with rat [9] (setting [27]) was 0.063 mg/kg/day; with rat [10] (setting [27]) it was 0.06 mg/kg/day; in the series with rat [11] (setting [29]) it was 0.3 mg/kg/day; with rat [11] (setting [31]), over 168 mg/kg/day; in the series with dog [12] (setting [32]), 0.02 mg/kg/day; in the series on dog [12] (group: systemic, systemic / clinical chemistry / [other] / [other] + systemic / in life observation / food consumption / food consumption) it was 4.5 mg/kg/day. Moreover, the LOAEL was 100 mg/kg/day in the series with rat [13] (group: developmental, developmental / developmental malformation / bone / short) and 100 mg/kg/day in the series on rat [13] (setting [22]). Moreover, the LEL was 0.063 mg/kg/day in the series on rat [9] (setting [28]); 0.06 mg/kg/day in the series with rat [10] (setting [27]); 0.3 mg/kg/day in the series with rat [11] (setting [29]); 168 mg/kg/day in the series with rat [11] (setting [31]); 0.015 mg/kg/day in the series with dog [12] (group: cholinesterase, cholinesterase / cholinesterase / cholinesterase / cholinesterase (che)); 0.0037 mg/kg/day in the series with dog [12] (setting [33]). Besides, the LEL with rat [13] (setting [34]) and in the series on rat [13] (setting [35]) was 100 mg/kg/day each time. For the same molecule, the NEL in the series with rat [9] (setting [28]) is 0.0125 mg/kg/day; in the series with rat [10] (setting [28]), 0.004 mg/kg/day; in the series on rat [11] (setting [30]), 0.03 mg/kg/day; in the series on rat [11] (setting [31]), 15 mg/kg/day; in the series with dog [12] (group: cholinesterase, cholinesterase / cholinesterase / cholinesterase / cholinesterase (che) + cholinesterase / cholinesterase / cholinesterase / brain …) it was 0.0032 mg/kg/day; in the series with dog [12] (setting [33]) it was under 0.0037 mg/kg/day. Further, the NEL in the series with rat [13] (setting [34]) and in the series on rat [13] (setting [35]) was 20 mg/kg/day each time. Moreover, the NOAEL is 0.0125 mg/kg/day in the series with rat [9] (setting [28]); 0.004 mg/kg/day in the series with rat [10] (setting [28]); 0.03 mg/kg/day with rat [11] (setting [30]); at least 168 mg/kg/day in the series on rat [11] (setting [31]); 0.0037 mg/kg/day with dog [12] (setting [32]); 0.02 mg/kg/day with dog [12] (group: systemic, systemic / clinical chemistry / [other] / [other] + systemic / in life observation / food consumption / food consumption + systemic / in …). Besides, the NOAEL in the series on rat [13] (setting [34]) and in the series with rat [13] (setting [35]) was 20 mg/kg/day throughout.

In the case of `O=C1C2CC=CCC2C(=O)N1SC(Cl)(Cl)Cl` (configuration not stated) [Captan], the LEL amounted to 599 mg/kg/day in the series with mouse [14]; 60.9 mg/kg/day with mouse [15] (systemic / pathology microscopic / intestine small / neoplasm nos + systemic / pathology microscopic / stomach / neoplasm nos); 30 mg/kg/day in the series with rabbit [16] (setting [37]); 30 mg/kg/day with rabbit [16] (setting [38]); 300 mg/kg/day with dog [17]. Moreover, the LOAEL was over 1880 mg/kg/day in the series on mouse [14]; 925 mg/kg/day with mouse [15] (setting [19]); 30 mg/kg/day in the series with rabbit [16] (setting [37]); 30 mg/kg/day in the series with rabbit [16] (setting [38]); 300 mg/kg/day with dog [17]. Moreover, the NEL was under 599 mg/kg/day in the series on mouse [14]; 15.1 mg/kg/day with mouse [15] (setting [36]); 10 mg/kg/day with rabbit [16] (setting [37]); 10 mg/kg/day in the series on rabbit [16] (setting [38]); 60 mg/kg/day in the series with dog [17]. Besides, the no-observed-adverse-effect level (NOAEL) is at least 1880 mg/kg/day in the series with mouse [14]; 123 mg/kg/day in the series on mouse [15] (setting [36]); 10 mg/kg/day in the series on rabbit [16] (setting [37]); 10 mg/kg/day in the series with rabbit [16] (setting [38]); 60 mg/kg/day in the series with dog [17].

In general, LOAEL refers to the lowest tested level that showed an adverse finding. As usually defined, the NOAEL is the highest dose or exposure tested at which no adverse effect was seen.
